The results in this text go back to EP0143109A1, “Pranoprofen gelled ointment” (priority 1983, dated 1985).

For series [1] the following is noted: rat, in vivo.
Series [2] in a line: Percutaneous absorption and excretion (Experiment 8). The conditions noted are these: after removing the unabsorbed ointment 6 hours after application.

As to `CC(C(=O)O)c1ccc2c(c1)Cc1cccnc1O2` (centres unmarked) [pranoprofen, Pranoprofen], the excretion route entry in series [1] is “excreted mainly into urine and feces”. In addition, in series [2], the “half-life of blood level” value is “about 5 hours”.
